Experimental data as given in PubChem BioAssay (NCI).
“And” between values parts separate entries of the source, which are not always exact repeats. Identical values can stand only once.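 Grown in 96-well plates, cells were treated for 48 hours with each compound at five concentrations. Insufficient inhibition: endpoint recorded as highest concentration tested. GI50 marks 50% less growth. TGI denotes the concentration required for complete inhibition of growth.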

How the values were obtained:
Test in all cases: NCI tumour cell line growth inhibition, 48 h
CCRF-CEM leukemia = tested on: CCRF-CEM leukemia
OVCAR-8 ovarian = tested on: OVCAR-8 ovarian
HOP-92 NSCLC = tested on: HOP-92 NSCLC
UACC-62 melanoma = tested on: UACC-62 melanoma
HCC-2998 colon = tested on: HCC-2998 colon
NCI-H460 lung = tested on: NCI-H460 lung
NCI/ADR-RES ovarian = tested on: NCI/ADR-RES ovarian
SF-295 CNS = tested on: SF-295 CNS
IGROV1 ovarian = tested on: IGROV1 ovarian
OVCAR-5 ovarian = tested on: OVCAR-5 ovarian

Structure (SMILES) | GI50 (CCRF-CEM leukemia) [µM] | TGI (CCRF-CEM leukemia) [µM] | GI50 (OVCAR-8 ovarian) [µM] | TGI (OVCAR-8 ovarian) [µM] | GI50 (HOP-92 NSCLC) [µM] | TGI (HOP-92 NSCLC) [µM] | GI50 (UACC-62 melanoma) [µM] | TGI (UACC-62 melanoma) | GI50 (HCC-2998 colon) [µM] | TGI (HCC-2998 colon) [µM] | GI50 (NCI-H460 lung) [µM] | TGI (NCI-H460 lung) [µM] | GI50 (NCI/ADR-RES ovarian) [µM] | TGI (NCI/ADR-RES ovarian) [µM] | GI50 (SF-295 CNS) [µM] | TGI (SF-295 CNS) [µM] | GI50 (IGROV1 ovarian) [µM] | TGI (IGROV1 ovarian) [µM] | GI50 (OVCAR-5 ovarian) [µM] | TGI (OVCAR-5 ovarian) [µM]
COc1cc2c3c(n(CCCCl)c(=O)c2cc1OC)-c1ccccc1C3=O | 0.71 | > 100 | 13.4 | > 100 | 78.8 | > 100 | 12.4 | 54.9 µM | > 100 | > 100 | 3.66 | > 100 | 6.36 | > 100 | 0.845 | 13.3 | – | – | – | –
Cn1cc(-c2csc(-c3cccc(F)c3)n2)c2cccnc21 | 35.9 | > 100 | 26.5 | 64.3 | 1.04 | 18.6 | 13.8 | 27.8 µM | 18.9 | 33.6 | 17 | 34.7 | 20.3 | 50.2 | 14.9 | 33.7 | 21.2 | 47.5 | 14.8 | 31.5
COc1ccc(C2CC(=O)c3c(OC)cc(OC)cc3O2)cc1 (centres undefined) | 4.2 | > 100 | > 100 | > 100 | 18.4 | > 100 | > 100 | > 100 µM | > 100 | > 100 | > 100 | > 100 | > 100 | > 100 | > 100 | > 100 | > 100 | > 100 | > 100 | > 100
CCCCNC(=O)NS(=O)(=O)c1ccc(N2N=C(c3ccc(C)cc3C)CC2c2ccc(N(C)C)cc2)cc1 (centres undefined) | 3.32 | 46.7 | 3.68 | > 100 | 2.39 | 31.4 | 2.18 | 6.12 µM | 2.25 | 5.1 | 3.33 | 15.9 | 4.12 | > 100 | – | – | 4.87 | > 100 | 5.24 | 96.1
CCCCCCCCCCC(O)C1CCC(C2CCC(C(O)CCCCC(O)CCCCCC(O)CC3=CC(C)OC3=O)O2)O1 (centres undefined) | 1.58 | > 25 | – | – | 3.87 | > 25 | > 25 | 9.08 µM and > 25 µM | – | > 25 | 10.7 | > 25 | > 25 | > 25 | 2 | > 25 | – | – | – | > 25
Cc1cc(C)cc(Nc2cc(C)nc3nc(C(F)(F)F)nn23)c1 | – | – | > 100 | > 100 | 26.2 | 97.9 | > 100 | > 100 µM | > 100 | > 100 | > 100 | > 100 | > 100 | > 100 | 32.3 | > 100 | > 100 | > 100 | > 100 | > 100
CC(C)CC(N)C(=O)O (centres undefined) | – | > 100 | – | > 100 | – | > 100 | – | > 100 µM | – | – | – | > 100 | – | > 100 | – | > 100 | – | > 100 | – | –
